Assay results reported in patent US7691858B2, “Kinase inhibitors and methods of use thereof” (TargeGen, Inc., priority 2006, dated 2010).
Entries after “also recorded” stand apart in the source; their conditions may differ.

Legend:
[1] = target: T1, GSK3 3 (Homo sapiens, UniProt P49841); assay: Kinase panel screen; format: biochemical; settings: Compound I and ATP 10 μM
T1 construct: purchased Upstate USA or Invitrogen (commercial screening service)

[2] = target: T2, Pyk2 (Homo sapiens, UniProt Q14289); assay: Kinase panel screen; format: biochemical; settings: Compound I and ATP 10 μM
T2 construct: purchased Upstate USA or Invitrogen (contract screening service)
T2 sequence (Q14289 whole entry): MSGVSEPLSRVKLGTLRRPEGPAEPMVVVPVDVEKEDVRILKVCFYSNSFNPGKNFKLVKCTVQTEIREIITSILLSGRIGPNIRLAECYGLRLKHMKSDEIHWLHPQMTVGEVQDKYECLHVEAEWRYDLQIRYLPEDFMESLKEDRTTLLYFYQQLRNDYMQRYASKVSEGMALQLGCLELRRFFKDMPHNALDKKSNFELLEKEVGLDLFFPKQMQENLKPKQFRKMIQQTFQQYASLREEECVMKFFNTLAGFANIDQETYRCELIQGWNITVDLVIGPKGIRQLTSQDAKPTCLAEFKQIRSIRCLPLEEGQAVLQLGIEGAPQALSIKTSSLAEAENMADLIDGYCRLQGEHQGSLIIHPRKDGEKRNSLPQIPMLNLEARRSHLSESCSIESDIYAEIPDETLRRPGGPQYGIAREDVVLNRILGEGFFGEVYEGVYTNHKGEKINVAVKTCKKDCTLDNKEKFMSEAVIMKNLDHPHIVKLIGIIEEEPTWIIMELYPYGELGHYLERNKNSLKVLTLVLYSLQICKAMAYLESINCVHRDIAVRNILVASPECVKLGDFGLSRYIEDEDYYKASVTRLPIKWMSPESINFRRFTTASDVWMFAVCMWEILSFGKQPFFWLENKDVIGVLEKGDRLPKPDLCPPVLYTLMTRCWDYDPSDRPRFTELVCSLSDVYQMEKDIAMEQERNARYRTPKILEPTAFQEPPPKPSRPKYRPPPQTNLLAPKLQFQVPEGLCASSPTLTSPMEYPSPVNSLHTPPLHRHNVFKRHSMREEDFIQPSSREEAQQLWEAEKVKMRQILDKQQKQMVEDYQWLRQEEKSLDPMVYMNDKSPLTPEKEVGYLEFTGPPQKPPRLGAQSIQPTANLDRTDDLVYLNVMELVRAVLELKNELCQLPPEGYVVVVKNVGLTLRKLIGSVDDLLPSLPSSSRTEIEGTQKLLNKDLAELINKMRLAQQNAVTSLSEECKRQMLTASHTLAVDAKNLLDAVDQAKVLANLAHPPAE

[3] = target: T3, Akt1 (Homo sapiens, UniProt P31749); assay: Kinase panel screen; format: biochemical; settings: Compound I at 1 μM and ATP at the apparent Km
T3 construct: purchased Upstate USA or Invitrogen (commercial screening service)

[4] = target: T4, PDGFRa (Homo sapiens, UniProt P16234); assay: Kinase panel screen; format: biochemical; settings: Compound I and ATP 10 μM
T4 construct: purchased Upstate USA or Invitrogen (commercial screening service)

[5] = target: T5, PKCC, (Homo sapiens, UniProt Q05513); assay: Kinase panel screen; format: biochemical; settings: Compound I and ATP 10 μM
T5 construct: purchased Upstate USA or Invitrogen (commercial screening service)
T5 sequence (Q05513 whole entry): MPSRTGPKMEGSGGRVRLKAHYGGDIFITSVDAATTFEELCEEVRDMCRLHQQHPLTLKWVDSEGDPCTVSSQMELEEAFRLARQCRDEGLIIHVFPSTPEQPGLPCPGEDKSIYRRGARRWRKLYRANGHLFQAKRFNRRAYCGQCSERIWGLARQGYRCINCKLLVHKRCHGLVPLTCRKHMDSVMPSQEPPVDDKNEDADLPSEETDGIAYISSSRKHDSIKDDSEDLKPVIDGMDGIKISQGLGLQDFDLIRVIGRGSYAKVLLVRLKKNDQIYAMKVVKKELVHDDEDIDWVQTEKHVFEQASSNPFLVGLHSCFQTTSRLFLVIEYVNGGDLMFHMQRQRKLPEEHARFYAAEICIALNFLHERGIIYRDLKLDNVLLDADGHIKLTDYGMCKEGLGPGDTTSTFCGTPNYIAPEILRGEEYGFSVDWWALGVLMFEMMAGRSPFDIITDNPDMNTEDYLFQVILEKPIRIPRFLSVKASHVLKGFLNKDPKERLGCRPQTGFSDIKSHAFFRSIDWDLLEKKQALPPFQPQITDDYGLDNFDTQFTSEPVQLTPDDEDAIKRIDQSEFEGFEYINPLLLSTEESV

[6] = target: T6, Pim-1 (Homo sapiens, UniProt P11309); assay: Kinase panel screen; format: biochemical; settings: Compound I and ATP 10 μM
T6 construct: purchased Upstate USA or Invitrogen (contract screening service)
T6 sequence (P11309 whole entry): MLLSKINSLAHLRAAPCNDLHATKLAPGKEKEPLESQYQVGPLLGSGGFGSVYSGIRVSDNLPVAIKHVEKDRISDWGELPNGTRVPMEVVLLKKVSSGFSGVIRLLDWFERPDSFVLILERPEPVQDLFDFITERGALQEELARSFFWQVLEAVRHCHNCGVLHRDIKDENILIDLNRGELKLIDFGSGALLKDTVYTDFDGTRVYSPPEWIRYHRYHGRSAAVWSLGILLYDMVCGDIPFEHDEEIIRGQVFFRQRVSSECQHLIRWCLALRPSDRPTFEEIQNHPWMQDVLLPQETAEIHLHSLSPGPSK

[7] = system: histamine-induced edema; assay: Miles assay, histamine as agonist; format: in vivo, Sprague-Dawley rats; settings: rats, Compound I pretreatment (1 mg/kg in FIG. 4)
Protocol: Sprague-Dawley rats were first injected IV with vehicle alone or test agent, followed by IV injection of Evans blue dye, followed by intradermal injections of saline and VEGF (200 ng/injection site) along both shaved flanks. […] The ability of test agents to influence edema induced by agonists other than VEGF was also tested. Compounds cited in this application inhibited edema formation induced using histamine as an agonist, for example, as shown below. The ability of test agent to influence vascular edema was tested as above, except that the ability to block edema was tested using either VEGF or histamine as the agonist (200 ng and 10 μg/injection site, respectively).

[8] = target: T7, CaMKIV (Homo sapiens, UniProt Q16566); assay: Kinase panel screen; format: biochemical; settings: Compound I and ATP 10 μM
T7 construct: purchased Upstate USA or Invitrogen (commercial screening service)

[9] = target: ZIPK (Homo sapiens, UniProt O43293); assay: Kinase panel screen; format: biochemical; settings: Compound I and ATP 10 μM
[10] = target: T8, PDK1 (Homo sapiens, UniProt O15530); assay: Kinase panel screen; format: biochemical; settings: Compound I and ATP 10 μM
T8 construct: purchased Upstate USA or Invitrogen (commercial screening service)

[11] = target: T9, ZAP-70 (Homo sapiens, UniProt P43403); assay: Kinase panel screen; format: biochemical; settings: Compound I and ATP 10 μM
T9 construct: purchased Upstate USA or Invitrogen (commercial screening service)

[12] = target: MKK6 (Homo sapiens, UniProt P52564); assay: Kinase panel screen; format: biochemical; settings: Compound I and ATP 10 μM
Chain of MKK6 (P52564 whole entry): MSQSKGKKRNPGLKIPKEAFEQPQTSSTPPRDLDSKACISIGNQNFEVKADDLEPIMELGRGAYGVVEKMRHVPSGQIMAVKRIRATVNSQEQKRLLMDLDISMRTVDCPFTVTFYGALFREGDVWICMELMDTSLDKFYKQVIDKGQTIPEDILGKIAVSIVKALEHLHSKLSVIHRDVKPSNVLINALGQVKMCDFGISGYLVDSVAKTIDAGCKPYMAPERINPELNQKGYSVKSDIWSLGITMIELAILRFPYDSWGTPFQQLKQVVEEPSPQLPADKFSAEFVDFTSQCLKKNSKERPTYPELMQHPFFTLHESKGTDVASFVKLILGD

[13] = target: MKK4 (Mus musculus, UniProt P47809); assay: Kinase panel screen; format: biochemical; settings: Compound I and ATP 10 μM
Chain of MKK4 (P47809 whole entry): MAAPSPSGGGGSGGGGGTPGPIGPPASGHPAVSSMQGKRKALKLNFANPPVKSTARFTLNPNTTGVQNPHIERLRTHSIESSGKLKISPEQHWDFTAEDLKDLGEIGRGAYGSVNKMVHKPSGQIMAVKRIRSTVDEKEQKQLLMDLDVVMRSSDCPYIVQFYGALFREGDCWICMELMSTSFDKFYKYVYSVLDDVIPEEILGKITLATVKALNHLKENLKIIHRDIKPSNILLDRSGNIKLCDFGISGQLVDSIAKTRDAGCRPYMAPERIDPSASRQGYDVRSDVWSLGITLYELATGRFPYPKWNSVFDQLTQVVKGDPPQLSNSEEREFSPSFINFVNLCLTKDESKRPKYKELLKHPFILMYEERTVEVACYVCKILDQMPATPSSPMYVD

[14] = target: T10, SAPK2a (Homo sapiens, UniProt Q16539); assay: Kinase panel screen; format: biochemical; settings: Compound I and ATP 10 μM
T10 construct: purchased Upstate USA or Invitrogen (commercial screening service)

[15] = target: T11, PKCs (Homo sapiens, UniProt Q02156); assay: Kinase panel screen; format: biochemical; settings: Compound I and ATP 10 μM
T11 construct: purchased Upstate USA or Invitrogen (commercial screening service)
T11 sequence (Q02156 whole entry): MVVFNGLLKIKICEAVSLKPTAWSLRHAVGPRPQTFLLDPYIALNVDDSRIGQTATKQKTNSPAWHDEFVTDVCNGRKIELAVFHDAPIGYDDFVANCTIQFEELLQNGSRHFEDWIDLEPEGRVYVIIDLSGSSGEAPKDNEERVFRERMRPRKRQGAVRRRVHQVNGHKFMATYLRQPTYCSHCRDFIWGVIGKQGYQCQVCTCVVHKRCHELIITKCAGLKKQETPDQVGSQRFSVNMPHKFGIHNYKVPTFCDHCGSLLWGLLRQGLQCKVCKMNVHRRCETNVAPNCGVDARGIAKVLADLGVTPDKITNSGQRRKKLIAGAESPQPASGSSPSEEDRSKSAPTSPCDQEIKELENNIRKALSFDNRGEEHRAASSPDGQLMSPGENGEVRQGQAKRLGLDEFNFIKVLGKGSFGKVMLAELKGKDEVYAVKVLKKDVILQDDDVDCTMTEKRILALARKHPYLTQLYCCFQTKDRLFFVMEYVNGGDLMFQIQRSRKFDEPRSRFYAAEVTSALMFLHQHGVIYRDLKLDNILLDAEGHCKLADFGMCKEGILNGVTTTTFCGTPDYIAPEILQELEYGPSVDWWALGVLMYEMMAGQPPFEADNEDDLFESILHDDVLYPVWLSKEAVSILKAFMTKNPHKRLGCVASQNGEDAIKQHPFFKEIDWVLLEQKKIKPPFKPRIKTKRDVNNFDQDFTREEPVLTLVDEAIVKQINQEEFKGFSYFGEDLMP

[16] = system: CaMKII; assay: Kinase panel screen; format: biochemical, rat; settings: Compound I and ATP 10 μM
[17] = target: T12, MINK (Homo sapiens, UniProt Q8N4C8); assay: Kinase panel screen; format: biochemical; settings: Compound I and ATP 10 μM
T12 construct: purchased Upstate USA or Invitrogen (contract screening service)

[18] = target: JNK2a2 (Homo sapiens, UniProt P45984); assay: Kinase panel screen; format: biochemical; settings: Compound I and ATP 10 μM
Chain of JNK2a2 (P45984 whole entry): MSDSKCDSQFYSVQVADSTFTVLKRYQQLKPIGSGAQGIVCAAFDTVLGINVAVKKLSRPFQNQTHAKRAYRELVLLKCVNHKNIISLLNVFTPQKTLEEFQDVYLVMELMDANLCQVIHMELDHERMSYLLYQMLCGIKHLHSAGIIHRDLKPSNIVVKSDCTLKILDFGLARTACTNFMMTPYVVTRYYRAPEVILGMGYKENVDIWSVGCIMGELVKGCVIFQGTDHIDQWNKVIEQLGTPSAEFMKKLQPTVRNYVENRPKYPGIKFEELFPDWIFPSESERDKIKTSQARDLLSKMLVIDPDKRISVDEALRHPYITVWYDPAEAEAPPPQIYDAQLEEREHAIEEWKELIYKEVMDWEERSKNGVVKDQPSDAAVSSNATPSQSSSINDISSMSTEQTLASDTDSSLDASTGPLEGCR

[19] = target: T13, BTK (Homo sapiens, UniProt Q06187); assay: Kinase panel screen; format: biochemical; settings: Compound I and ATP 10 μM
T13 construct: purchased Upstate USA or Invitrogen (commercial screening service)
T13 sequence (Q06187 whole entry): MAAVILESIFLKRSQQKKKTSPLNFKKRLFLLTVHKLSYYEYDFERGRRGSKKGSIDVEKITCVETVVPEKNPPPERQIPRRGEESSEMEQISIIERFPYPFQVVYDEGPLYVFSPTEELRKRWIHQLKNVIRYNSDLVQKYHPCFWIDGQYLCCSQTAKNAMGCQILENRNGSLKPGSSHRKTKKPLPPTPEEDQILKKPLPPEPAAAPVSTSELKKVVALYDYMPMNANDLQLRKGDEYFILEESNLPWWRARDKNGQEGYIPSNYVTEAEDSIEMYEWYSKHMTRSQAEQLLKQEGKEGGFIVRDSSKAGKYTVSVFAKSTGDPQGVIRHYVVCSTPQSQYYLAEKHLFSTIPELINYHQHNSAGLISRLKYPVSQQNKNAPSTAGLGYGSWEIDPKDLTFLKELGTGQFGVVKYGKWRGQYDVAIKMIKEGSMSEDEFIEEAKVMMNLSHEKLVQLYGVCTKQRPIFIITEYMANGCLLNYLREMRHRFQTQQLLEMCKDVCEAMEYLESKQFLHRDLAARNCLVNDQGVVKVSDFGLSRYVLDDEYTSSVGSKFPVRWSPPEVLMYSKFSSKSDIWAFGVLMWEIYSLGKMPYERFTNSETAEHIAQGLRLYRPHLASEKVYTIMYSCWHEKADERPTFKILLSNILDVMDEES

[20] = target: T14, PKCy (Homo sapiens, UniProt P05129); assay: Kinase panel screen; format: biochemical; settings: Compound I and ATP 10 μM
T14 construct: purchased Upstate USA or Invitrogen (commercial screening service)

[21] = target: T15, Hck (Homo sapiens, UniProt P08631); assay: Kinase panel screen; format: biochemical; settings: Compound I and ATP 10 μM
T15 construct: purchased Upstate USA or Invitrogen (commercial screening service)
T15 sequence (P08631 whole entry): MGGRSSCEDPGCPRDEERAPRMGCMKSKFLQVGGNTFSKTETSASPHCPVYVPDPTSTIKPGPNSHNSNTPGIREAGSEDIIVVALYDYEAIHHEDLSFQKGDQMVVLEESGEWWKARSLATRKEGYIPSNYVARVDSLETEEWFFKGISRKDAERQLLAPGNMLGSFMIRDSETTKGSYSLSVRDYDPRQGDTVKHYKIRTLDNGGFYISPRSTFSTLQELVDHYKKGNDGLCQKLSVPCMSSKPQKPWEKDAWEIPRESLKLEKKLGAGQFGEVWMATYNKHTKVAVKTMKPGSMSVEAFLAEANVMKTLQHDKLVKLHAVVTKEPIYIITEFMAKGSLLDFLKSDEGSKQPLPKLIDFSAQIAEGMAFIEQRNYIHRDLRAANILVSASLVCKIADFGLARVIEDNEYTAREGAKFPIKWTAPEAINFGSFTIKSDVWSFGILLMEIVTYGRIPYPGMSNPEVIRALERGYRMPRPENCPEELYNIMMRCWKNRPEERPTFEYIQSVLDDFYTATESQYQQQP

[22] = target: T16, EphB4 (Homo sapiens, UniProt P54760); assay: Kinase panel screen; format: biochemical; settings: Compound I and ATP 10 μM
T16 construct: purchased Upstate USA or Invitrogen (commercial screening service)

Nc1nc(N)c2nc(-c3cccc(O)c3)c(-c3cccc(O)c3)nc2n1 [Compound I, 6,7-bis-(3-hydroxyphenyl)-pteridine-2,4-diamine]
Percent Control, GSK3 3 [1]: p70S6K Percent | Percent Control, Pyk2 [2]: 68% | Percent Control, Akt1* [3]: 96% | Percent Control, PDGFRa [4]: 86% | Percent Control, PKCC, [5]: 99% | Percent Control, Pim-1 [6]: 70% | histamine-induced permeability / edema formation [7]: blocked; also recorded: reduced edema formation | Percent Control, CaMKIV [8]: 87% | Percent Control, ZIPK [9]: 112% | Percent Control, PDK1 [10]: 90% | Percent Control, ZAP-70 [11]: 96% | Percent Control, MKK6 [12]: 75% | Percent Control, MKK4 (m) [13]: 57% | Percent Control, SAPK2a [14]: 55% | Percent Control, PKCs [15]: 69% | Percent Control, CaMKII (r) [16]: 90% | Percent Control, MINK [17]: 88% | Percent Control, JNK2a2 [18]: 91% | Percent Control, BTK [19]: 75% | Percent Control, PKCy [20]: 75% | Percent Control, Hck [21]: 67% | Percent Control, EphB4 [22]: 68%
